According to ChEMBL document CHEMBL3784917, “Recent Progress in Histone Demethylase Inhibitors” (J Med Chem, 2016):

Tests used:
[1] = molecular target: T1, Lysine-specific histone demethylase 1A (Homo sapiens, UniProt O60341)
MDA-MB-231 = assay: Antiproliferative activity against human MDA-MB-231 cells assessed as reduction in cell viability after 72 hrs by MTT assay; type: functional, cell-based; conditions: MDA-MB-231, 72 h
HeLa = assay: Antiproliferative activity against human HeLa cells assessed as reduction in cell viability after 72 hrs by MTT assay; type: functional, cell-based
[2] = molecular target: T2, Amine oxidase [flavin-containing] A (Homo sapiens, UniProt P21397); assay: Inhibition of MAO-A (unknown origin) using MAO substrate incubated for 1 hr by MAO-Glo assay
T2 sequence (P21397 whole entry): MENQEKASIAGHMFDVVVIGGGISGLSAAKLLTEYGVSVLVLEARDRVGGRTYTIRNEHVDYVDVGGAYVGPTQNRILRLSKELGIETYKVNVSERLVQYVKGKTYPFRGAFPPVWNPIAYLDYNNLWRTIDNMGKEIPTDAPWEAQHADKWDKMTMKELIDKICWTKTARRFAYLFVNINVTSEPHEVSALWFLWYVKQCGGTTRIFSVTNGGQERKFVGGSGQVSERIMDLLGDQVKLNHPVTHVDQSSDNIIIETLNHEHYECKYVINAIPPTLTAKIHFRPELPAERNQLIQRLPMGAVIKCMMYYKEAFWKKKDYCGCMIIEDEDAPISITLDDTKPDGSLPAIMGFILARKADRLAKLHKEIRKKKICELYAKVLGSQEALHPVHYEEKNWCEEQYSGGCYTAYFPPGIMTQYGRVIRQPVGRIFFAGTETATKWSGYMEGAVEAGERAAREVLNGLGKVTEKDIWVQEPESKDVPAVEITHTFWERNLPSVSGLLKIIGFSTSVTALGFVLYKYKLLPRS

[3] = molecular target: T3, Amine oxidase [flavin-containing] B (Homo sapiens, UniProt P27338); assay: Inhibition of MAO-B (unknown origin) using MAO substrate incubated for 1 hr by MAO-Glo assay
T3 sequence (P27338 whole entry): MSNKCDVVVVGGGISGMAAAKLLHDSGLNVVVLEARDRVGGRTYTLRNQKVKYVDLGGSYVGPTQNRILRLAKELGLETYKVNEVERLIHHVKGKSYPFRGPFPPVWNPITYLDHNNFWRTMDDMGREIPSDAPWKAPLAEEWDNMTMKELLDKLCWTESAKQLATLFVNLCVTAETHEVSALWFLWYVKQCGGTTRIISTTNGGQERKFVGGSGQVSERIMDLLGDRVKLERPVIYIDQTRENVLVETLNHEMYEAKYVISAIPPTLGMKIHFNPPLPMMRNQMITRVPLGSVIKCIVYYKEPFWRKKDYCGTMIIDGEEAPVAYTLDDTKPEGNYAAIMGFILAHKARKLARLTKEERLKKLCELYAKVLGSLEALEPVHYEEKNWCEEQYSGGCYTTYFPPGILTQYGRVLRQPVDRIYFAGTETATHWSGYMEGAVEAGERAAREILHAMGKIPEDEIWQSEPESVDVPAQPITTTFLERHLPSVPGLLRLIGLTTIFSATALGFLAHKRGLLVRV

[4] = molecular target: T1, Lysine-specific histone demethylase 1A; assay: Inhibition of KDM1A in human THP1 cells assessed as inhibition of CD11b expressing cells incubated for 4 days by DAPI staining based flow cytometry; type: cell-based, THP-1
[5] = molecular target: T1, Lysine-specific histone demethylase 1A; assay: Inhibition of full length human KDM1A expressed in Escherichia coli using biotin-H3K4me1 as substrate incubated for 1 hr by TR-FRET assay
[6] = molecular target: T1, Lysine-specific histone demethylase 1A; assay: Inhibition of human recombinant KDM1A using H3 (1 to 21 residues)-K4me2 peptide substrate by fluorescence coupling enzyme assay
[7] = molecular target: T3, Amine oxidase [flavin-containing] B
[8] = molecular target: T1, Lysine-specific histone demethylase 1A; assay: biochemical
[9] = molecular target: T2, Amine oxidase [flavin-containing] A; assay: Inhibition of MAO-A (unknown origin) preincubated for 10 mins followed by substrate addition measured after 60 mins by MAO-Glo assay
[10] = molecular target: T4, Lysine-specific demethylase 4A (Homo sapiens, UniProt O75164)
T4 sequence (O75164 whole entry): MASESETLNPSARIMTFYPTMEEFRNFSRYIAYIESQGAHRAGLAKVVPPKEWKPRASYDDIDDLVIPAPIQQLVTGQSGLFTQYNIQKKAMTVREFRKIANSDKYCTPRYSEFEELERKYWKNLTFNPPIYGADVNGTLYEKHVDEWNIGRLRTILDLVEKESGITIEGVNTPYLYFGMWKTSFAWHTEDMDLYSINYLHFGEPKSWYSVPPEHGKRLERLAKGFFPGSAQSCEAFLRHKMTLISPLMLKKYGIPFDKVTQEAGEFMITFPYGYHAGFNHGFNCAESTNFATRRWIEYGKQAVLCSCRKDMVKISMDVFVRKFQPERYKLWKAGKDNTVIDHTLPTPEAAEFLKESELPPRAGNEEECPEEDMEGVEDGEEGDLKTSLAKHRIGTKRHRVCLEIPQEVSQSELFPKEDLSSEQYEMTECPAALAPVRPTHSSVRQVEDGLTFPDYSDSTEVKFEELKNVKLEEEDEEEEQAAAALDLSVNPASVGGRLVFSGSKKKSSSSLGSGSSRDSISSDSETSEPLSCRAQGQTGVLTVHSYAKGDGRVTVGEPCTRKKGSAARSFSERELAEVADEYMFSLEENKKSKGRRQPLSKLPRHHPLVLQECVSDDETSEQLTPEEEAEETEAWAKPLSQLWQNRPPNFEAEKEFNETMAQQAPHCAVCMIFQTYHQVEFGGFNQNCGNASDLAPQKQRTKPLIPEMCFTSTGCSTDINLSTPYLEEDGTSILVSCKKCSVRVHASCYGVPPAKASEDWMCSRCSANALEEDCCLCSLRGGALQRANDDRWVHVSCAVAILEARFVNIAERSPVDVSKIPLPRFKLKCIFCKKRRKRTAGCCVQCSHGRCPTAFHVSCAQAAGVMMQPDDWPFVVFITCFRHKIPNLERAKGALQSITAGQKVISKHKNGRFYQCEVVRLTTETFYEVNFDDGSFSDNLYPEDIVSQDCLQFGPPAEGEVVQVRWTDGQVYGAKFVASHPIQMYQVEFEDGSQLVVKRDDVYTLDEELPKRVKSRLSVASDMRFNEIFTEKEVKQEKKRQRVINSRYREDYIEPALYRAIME

[11] = molecular target: T5, Lysine-specific demethylase 4B (Homo sapiens, UniProt O94953); assay: biochemical
T5 sequence (O94953 whole entry): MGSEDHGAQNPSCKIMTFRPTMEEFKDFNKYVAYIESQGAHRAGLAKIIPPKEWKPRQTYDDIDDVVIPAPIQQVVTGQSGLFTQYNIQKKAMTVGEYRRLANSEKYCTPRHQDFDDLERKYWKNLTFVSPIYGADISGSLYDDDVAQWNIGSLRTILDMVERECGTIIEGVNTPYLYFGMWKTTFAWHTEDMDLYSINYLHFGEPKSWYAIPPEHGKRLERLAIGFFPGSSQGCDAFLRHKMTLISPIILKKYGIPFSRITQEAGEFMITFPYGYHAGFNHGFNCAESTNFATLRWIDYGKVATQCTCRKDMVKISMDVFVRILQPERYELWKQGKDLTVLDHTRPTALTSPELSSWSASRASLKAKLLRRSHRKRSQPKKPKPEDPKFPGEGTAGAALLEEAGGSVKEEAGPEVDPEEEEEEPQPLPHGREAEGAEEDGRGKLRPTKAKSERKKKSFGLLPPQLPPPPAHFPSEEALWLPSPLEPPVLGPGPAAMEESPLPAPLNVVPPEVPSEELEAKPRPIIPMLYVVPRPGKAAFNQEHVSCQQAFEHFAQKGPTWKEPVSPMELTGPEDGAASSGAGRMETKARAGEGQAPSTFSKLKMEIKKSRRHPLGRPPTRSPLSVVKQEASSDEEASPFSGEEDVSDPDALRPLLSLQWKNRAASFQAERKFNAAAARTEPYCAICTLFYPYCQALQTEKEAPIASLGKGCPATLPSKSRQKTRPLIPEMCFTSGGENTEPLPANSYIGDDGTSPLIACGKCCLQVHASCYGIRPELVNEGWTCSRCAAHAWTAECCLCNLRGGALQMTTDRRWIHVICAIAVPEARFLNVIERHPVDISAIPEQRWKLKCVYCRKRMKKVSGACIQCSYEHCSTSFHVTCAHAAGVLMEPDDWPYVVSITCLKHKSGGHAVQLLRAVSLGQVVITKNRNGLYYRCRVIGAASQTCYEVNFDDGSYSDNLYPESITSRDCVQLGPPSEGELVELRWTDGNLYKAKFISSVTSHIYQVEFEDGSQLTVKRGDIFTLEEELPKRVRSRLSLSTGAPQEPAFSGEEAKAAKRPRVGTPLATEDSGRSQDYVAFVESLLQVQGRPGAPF

[12] = molecular target: Lysine-specific demethylase 5A (Homo sapiens, UniProt P29375)
[13] = Antiproliferative activity against human VCaP cells assessed as reduction in cell viability by MTT assay; type: functional, cell-based
[14] = molecular target: T6, Lysine-specific demethylase 4C (Homo sapiens, UniProt Q9H3R0); assay: Inhibition of KDM4C (1 to 350 residues) (unknown origin) expressed in Escherichia coli using […] as substrate
T6 sequence (Q9H3R0 whole entry): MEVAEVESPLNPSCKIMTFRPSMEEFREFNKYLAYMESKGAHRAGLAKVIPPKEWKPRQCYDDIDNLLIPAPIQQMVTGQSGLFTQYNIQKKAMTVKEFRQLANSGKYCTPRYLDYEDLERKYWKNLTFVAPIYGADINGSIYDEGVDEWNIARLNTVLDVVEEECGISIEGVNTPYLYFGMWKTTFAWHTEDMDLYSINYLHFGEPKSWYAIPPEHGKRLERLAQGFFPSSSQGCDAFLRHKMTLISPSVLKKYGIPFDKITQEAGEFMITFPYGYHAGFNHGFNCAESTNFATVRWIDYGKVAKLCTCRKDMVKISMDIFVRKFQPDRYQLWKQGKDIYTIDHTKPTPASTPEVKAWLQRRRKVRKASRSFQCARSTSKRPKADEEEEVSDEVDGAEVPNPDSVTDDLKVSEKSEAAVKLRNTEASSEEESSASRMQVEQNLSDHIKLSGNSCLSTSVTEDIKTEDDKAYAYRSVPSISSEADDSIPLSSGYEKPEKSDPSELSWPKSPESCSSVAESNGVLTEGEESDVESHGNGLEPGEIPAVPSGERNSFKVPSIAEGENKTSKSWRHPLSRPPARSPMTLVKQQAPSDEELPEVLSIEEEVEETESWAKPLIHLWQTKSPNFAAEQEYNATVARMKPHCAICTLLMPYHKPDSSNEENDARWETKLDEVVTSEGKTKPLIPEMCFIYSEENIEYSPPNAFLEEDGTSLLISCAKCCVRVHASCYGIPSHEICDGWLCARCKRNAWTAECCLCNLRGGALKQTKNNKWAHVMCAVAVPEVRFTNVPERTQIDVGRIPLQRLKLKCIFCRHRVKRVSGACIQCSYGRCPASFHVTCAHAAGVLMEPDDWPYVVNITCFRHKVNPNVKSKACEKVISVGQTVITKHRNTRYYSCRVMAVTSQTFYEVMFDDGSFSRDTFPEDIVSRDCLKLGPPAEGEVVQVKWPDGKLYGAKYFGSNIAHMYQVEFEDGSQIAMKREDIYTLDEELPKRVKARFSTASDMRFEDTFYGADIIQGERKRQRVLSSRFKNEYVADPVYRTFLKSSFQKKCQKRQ

[15] = Antiproliferative activity against human PC3 cells assessed as reduction in cell viability by MTT assay; type: functional, cell-based; conditions: PC-3
LNCaP = assay: Antiproliferative activity against human LNCAP cells assessed as reduction in cell viability by MTT assay; type: functional, cell-based
[16] = molecular target: T3, Amine oxidase [flavin-containing] B; assay: Inhibition of human recombinant MAO-B expressed in Pichia pastoris preincubated for 15 mins followed by substrate addition measured after 30 mins by MAO-Glo assay
[17] = molecular target: T2, Amine oxidase [flavin-containing] A; assay: Inhibition of human recombinant MAO-A expressed in Pichia pastoris preincubated for 15 mins followed by substrate addition measured after 30 mins by MAO-Glo assay
[18] = molecular target: T1, Lysine-specific histone demethylase 1A; assay: Inhibition of human recombinant KDM1A expressed in Escherichia coli using H3K4me peptide substrate preincubated for 15 mins followed substrate addition measured after 12 mins by peroxidase coupled enzyme assay
[19] = molecular target: T3, Amine oxidase [flavin-containing] B; assay: Inhibition of human recombinant MAO-B using 3-(2-Aminophenyl)-3-oxopropanamine as substrate preincubated for 15 mins followed by substrate addition measured after 1 hr by fluorescence microplate reader analysis
[20] = molecular target: T1, Lysine-specific histone demethylase 1A; assay: Inhibition of recombinant human N-terminal GST-tagged KDM1A expressed in Escherichia coli using H3K4me2 as substrate preincubated for 15 mins followed by substrate addition measured after 1 hr by peroxidase coupled enzyme assay
[21] = molecular target: T2, Amine oxidase [flavin-containing] A; assay: Inhibition of human recombinant MAO-A using 3-(2-Aminophenyl)-3-oxopropanamine as substrate preincubated for 15 mins followed by substrate addition measured after 1 hr by fluorescence microplate reader analysis

Chain of Lysine-specific demethylase 5A (P29375 whole entry): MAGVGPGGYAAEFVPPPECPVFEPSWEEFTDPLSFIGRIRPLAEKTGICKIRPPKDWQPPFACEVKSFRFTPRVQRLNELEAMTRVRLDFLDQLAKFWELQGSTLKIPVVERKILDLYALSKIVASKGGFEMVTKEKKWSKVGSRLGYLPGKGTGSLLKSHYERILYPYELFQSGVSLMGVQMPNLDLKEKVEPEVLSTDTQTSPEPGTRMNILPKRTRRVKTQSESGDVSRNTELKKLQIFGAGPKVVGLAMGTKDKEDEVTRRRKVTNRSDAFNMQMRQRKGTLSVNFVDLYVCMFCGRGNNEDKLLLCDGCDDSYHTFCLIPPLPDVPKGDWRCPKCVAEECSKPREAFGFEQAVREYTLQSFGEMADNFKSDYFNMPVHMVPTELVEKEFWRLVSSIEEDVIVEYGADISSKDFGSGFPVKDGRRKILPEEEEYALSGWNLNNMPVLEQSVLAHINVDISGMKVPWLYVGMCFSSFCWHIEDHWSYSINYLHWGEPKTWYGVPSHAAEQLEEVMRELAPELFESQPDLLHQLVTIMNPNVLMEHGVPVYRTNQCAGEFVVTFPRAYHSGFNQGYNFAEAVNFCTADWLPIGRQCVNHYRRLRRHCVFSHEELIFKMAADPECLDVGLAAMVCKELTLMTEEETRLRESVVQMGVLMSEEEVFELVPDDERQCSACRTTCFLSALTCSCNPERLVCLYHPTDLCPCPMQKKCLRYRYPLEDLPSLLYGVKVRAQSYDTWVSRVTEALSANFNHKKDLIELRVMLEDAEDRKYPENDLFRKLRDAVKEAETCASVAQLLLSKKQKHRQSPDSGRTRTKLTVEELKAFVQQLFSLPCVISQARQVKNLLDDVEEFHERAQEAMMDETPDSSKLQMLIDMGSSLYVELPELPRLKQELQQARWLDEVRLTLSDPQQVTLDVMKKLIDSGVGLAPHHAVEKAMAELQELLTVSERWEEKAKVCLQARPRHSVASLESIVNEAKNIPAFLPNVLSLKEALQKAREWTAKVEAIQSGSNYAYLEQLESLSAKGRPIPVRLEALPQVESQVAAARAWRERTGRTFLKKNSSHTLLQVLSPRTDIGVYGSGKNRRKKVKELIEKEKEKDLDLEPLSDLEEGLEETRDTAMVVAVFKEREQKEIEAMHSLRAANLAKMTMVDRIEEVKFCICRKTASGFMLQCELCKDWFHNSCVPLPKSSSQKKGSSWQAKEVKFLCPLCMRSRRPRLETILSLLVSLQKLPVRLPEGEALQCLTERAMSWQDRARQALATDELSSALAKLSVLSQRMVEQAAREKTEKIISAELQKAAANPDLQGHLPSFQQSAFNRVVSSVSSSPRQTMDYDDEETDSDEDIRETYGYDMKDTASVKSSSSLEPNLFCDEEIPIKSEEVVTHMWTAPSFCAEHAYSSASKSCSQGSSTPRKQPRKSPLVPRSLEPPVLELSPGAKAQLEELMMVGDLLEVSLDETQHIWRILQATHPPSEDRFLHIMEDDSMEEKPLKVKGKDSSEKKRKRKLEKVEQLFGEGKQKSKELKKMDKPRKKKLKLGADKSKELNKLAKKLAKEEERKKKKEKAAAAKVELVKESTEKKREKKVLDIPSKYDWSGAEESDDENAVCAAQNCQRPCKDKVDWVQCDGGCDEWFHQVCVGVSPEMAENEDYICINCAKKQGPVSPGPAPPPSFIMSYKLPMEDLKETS

## CSCCc1nc(-c2cc(N)ccc2Cl)oc1C
[1]
  IC50: 10100 nM
MDA-MB-231
  IC50: 1.2 nM
HeLa
  IC50: 1.2 nM

## O=C(N[C@@H](CCCCN[C@@H]1C[C@H]1c1ccccc1)C(=O)NCc1cccc(Cl)c1)c1ccc(-c2ccccc2)cc1
[2]
  IC50: > 100000 nM
[3]
  IC50: > 100000 nM

## Cc1ccc(-c2cnc(NC[C@H]3CCNC3)nc2-c2ccc(C#N)cc2)cc1
[4]
  IC50: < 10 nM
[5]
  IC50: < 10 nM

## O=C(N[C@@H](CCCCN[C@@H]1C[C@H]1c1ccc(F)cc1)C(=O)NCc1ccc(F)cc1)c1ccccc1
[6]
  IC50: < 1000 nM

## Cc1ncc(NC(=O)c2cccc([C@@H]3C[C@H]3NC3CCOCC3)c2)s1 (racemic)
[7]
  IC50: > 10000 nM
[8]
  IC50: < 1000 nM
[9]
  IC50: > 10000 nM

## O=C(NCCCc1ccccc1)c1cccc(-c2cc(O)c3ncccc3c2)c1
[10]
  IC50: < 1000 nM
[11]
  IC50: 10 nM
[12]
  IC50: > 10000 nM
[13]
  IC50: < 1000 nM
[14]
  IC50: < 1000 nM
[15]
  IC50: 40 nM
LNCaP
  IC50: < 1000 nM

## CN1CCN(c2ccc(C(=O)Nc3ccc([C@@H]4C[C@]4(N)CCc4ccccc4)cc3)cc2)CC1 (racemic)
[16]
  IC50: > 10000 nM
[17]
  IC50: > 10000 nM
[18]
  IC50: < 100 nM

## CC(C)S(=O)(=O)Nc1cccc(-c2ccc([C@H]3C[C@@H]3N)cc2)c1
[19]
  IC50: > 10000 nM
[20]
  IC50: 70 nM
[21]
  IC50: > 1000 nM
